From the NIST ThermoML archive (doi:10.1021/je8004613)

Experiment: xn = mol fraction of the nth substance listed
Conditions: 101 kPa, Liquid; for speed of sound: Pulse-echo method; for mass density: Vibrating tube method

COC(C)(C)C [2-methoxy-2-methylpropane] + CCCCCCCC
Conditions | mass density, 288.15 K [kg/m3] | mass density, 293.15 K [kg/m3] | mass density, 298.15 K [kg/m3] | mass density, 303.15 K [kg/m3] | mass density, 308.15 K [kg/m3] | speed of sound, 288.15 K [m/s] | speed of sound, 293.15 K [m/s] | speed of sound, 298.15 K [m/s] | speed of sound, 303.15 K [m/s] | speed of sound, 308.15 K [m/s]
x1 = 0.0681 | 708.15 | 704.08 | 700.01 | 695.91 | 691.79 | 1205.4 | 1184.6 | 1163.5 | 1142.6 | 1121.8
x1 = 0.1226 | 709.47 | 705.36 | 701.24 | 697.1 | 692.93 | 1198.4 | 1177.6 | 1156.3 | 1135.4 | 1114.7
x1 = 0.2056 | 711.65 | 707.48 | 703.29 | 699.07 | 694.83 | 1187.6 | 1166.7 | 1145.4 | 1124.3 | 1103.4
x1 = 0.3046 | 714.48 | 710.23 | 705.96 | 701.64 | 697.3 | 1174.2 | 1153.1 | 1131.8 | 1110.5 | 1089.4
x1 = 0.4001 | 717.54 | 713.19 | 708.81 | 704.4 | 699.96 | 1161.4 | 1140.2 | 1118.7 | 1097.1 | 1075.9
x1 = 0.4535 | 719.37 | 714.96 | 710.53 | 706.06 | 701.56 | 1154.3 | 1132.9 | 1111.2 | 1089.6 | 1068.2
x1 = 0.4947 | 720.85 | 716.4 | 711.92 | 707.4 | 702.84 | 1148.7 | 1127.2 | 1105.4 | 1083.8 | 1062.3
x1 = 0.5442 | 722.73 | 718.21 | 713.67 | 709.09 | 704.48 | 1142 | 1120.6 | 1098.7 | 1077 | 1055.3
x1 = 0.5996 | 724.94 | 720.36 | 715.75 | 711.1 | 706.42 | 1134.7 | 1113 | 1091 | 1069.1 | 1047.5
x1 = 0.6916 | 728.91 | 724.2 | 719.47 | 714.7 | 709.89 | 1122.5 | 1100.6 | 1078.4 | 1056.2 | 1034.3
x1 = 0.8001 | 734.16 | 729.3 | 724.41 | 719.47 | 714.49 | 1108.1 | 1085.8 | 1063.2 | 1040.8 | 1018.6
x1 = 0.9007 | 739.68 | 734.66 | 729.6 | 724.5 | 719.35 | 1095.1 | 1072.6 | 1049.6 | 1026.9 | 1004.2
x1 = 0.9487 | 742.54 | 737.44 | – | 727.1 | 721.86 | 1089 | 1066.2 | 1043.1 | 1020.1 | 997.3
